Experimental data: article PMC9920998, “Synthesis of Oleanolic Acid-Dithiocarbamate Conjugates and Evaluation of Their Broad-Spectrum Antitumor Activities” (Molecules, 2023)

Columns and labels:
Format in all cases: cell-based
[1] = tested on: Panc1 cells (human pancreatic cancer); test: MTT cytotoxicity assay, Panc1
Description: (§1) Having obtained a series of structurally diverse OA-dithiocarbamates, we next performed a systematic biological evaluation to examine whether introducing an extra dithiocarbamate group could improve antitumor activities. These compounds were evaluated by MTT assay against human pancreatic cancer (Panc1), human lung cancer (A549), human hepatoma cell (Hep3B), human hepatoma cell (Huh-7), human colon cancer (HT-29), and human cervical cancer (Hela) cells, with the widely used anticancer drugs fluorouracil, docetaxel, and cisplatin as positive controls (Table 2). […] Moreover, the cytotoxicities of compounds 3a-3t were also evaluated in human normal hepatocytes (LO2) to determine whether these compounds preferred killing tumor cells over normal cells.
(§2) The optical density at 490 nm of each well was measured using a microplate reader (Molecular devices corporation, Sunnyvale, CA. USA) to calculate the percent of cell viability. The inhibition rates were calculated using GraphPad Prism 7.0 software. The seven tested cell lines were obtained from the laboratory of Molecular Pharmacology, Department of Pharmacology, School of Pharmacy, Southwest Medical University.
(§3) The in vitro cytotoxic activities of the compounds were evaluated by MTT assay against Panc1, A549, Hep3B, Huh-7, HT-29, Hela, LO2. Cell lines were obtained from the Laboratory of Molecular Pharmacology, Southwest Medical University. Briefly, different tumor cells grew in DMEM medium except for A549, which used 1640 medium. Cells ((3–5) × 10^3 cells/well) were harvested at the log phase of growth and seeded in 96-well plates. After 24 h incubation at 37 °C in 5% CO2 to allow cell attachment, cultures were exposed to various concentrations of the isolated compounds for 48 h. Finally, the MTT solution was added. Plates were further incubated for 4 h at 37 °C after adding 150 µL/well of DMSO and shaking for 10 min on the shaker platform. The plates were read in a 96-well plate reader at 490 nm wavelength. The results were expressed as IC50 values, and were defined as the concentration at which 50% survival of cells was obtained. Fluorouracil, docetaxel, and cisplatin were co-assayed as positive controls.

[2] = tested on: A549 cells (human lung cancer); test: MTT cytotoxicity assay, A549; conditions: 48 h exposure
Description: as §1, §2, §3

[3] = tested on: Hep3B cells (human hepatoma cell); test: MTT cytotoxicity assay, Hep3B; conditions: 48 h exposure
Description: as §1, §2, §3

[4] = tested on: Huh-7 cells (human hepatoma cell); test: MTT cytotoxicity assay, Huh-7; conditions: Huh-7, MTT, 48 h exposure
Description: as §1, §2, §3

[5] = tested on: Hela cells (human cervical cancer); test: MTT cytotoxicity assay, Hela; conditions: 48 h exposure
Description: as §1, §2, §3

[6] = tested on: LO2 cells (human normal hepatocytes); test: MTT cytotoxicity assay, LO2 normal cells
Description: as §1, §2, §3

[7] = tested on: HT-29 cells (human colon cancer); test: MTT cytotoxicity assay, HT-29; conditions: HT-29, MTT, 48 h exposure
Description: as §1, §2, §3

[8] = Homo sapiens, PANC-1, 48 h exposure

Row | SMILES | IC50 [1, 8] | IC50 ([2]; Homo sapiens) | IC50 ([3]; Homo sapiens) | IC50 ([4]; Homo sapiens) | IC50 ([5]; Homo sapiens) | IC50 ([6]; L02, 48 h exposure) | IC50 ([7]; Homo sapiens) | IC50 ([1]; 48 h exposure) | IC50 [2] | IC50 [3] | IC50 [4] | IC50 [7] | IC50 [5] | IC50 ([6]; 48 h exposure)
1 | CC1(C)CC[C@]2(C(=O)OCCSC(=S)N3CCCC3)CC[C@]3(C)C(=CC[C@@H]4[C@@]5(C)CC[C@H](O)C(C)(C)[C@@H]5CC[C@]43C)[C@@H]2C1 [3a, [2-((pyrrolidine-1-carbonothioyl)thio)ethyl] 3-hydroxy-12-en-28-oic acid] | > 200 µM | 92.1 µM | > 200 µM | 145 µM | 89.4 µM | 113 µM | – | – | – | – | – | – | – | –
2 | O=c1[nH]cc(F)c(=O)[nH]1 [5-fluorouracil] | 160 µM | 125 µM | 152 µM | 140 µM | 130 µM | 109 µM | 93.3 µM | – | – | – | – | – | – | –
3 | N.N.[Cl][Pt][Cl] [Cisplatin] | – | – | – | – | – | – | – | > 200 µM | > 200 µM | > 200 µM | > 200 µM | > 200 µM | 142 µM | > 200 µM
4 | CC(=O)O[C@@]12CO[C@@H]1C[C@H](O)[C@@]1(C)C(=O)[C@H](O)C3=C(C)[C@@H](OC(=O)[C@H](O)[C@@H](NC(=O)OC(C)(C)C)c4ccccc4)C[C@@](O)([C@@H](OC(=O)c4ccccc4)[C@H]21)C3(C)C [Docetaxel] | > 200 µM | > 200 µM | 172 µM | 104 µM | 135 µM | 140 µM | > 200 µM | – | – | – | – | – | – | –
5 | CC1(C)CC[C@]2(C(=O)O)CC[C@]3(C)C(=CC[C@@H]4[C@@]5(C)CC[C@H](O)C(C)(C)[C@@H]5CC[C@]43C)[C@@H]2C1 [OA, oleanolic acid] | > 200 µM | > 200 µM | > 200 µM | > 200 µM | > 200 µM | 140 µM | > 200 µM | – | – | – | – | – | – | –
